Reference: patent publication US20230009608A1, “GRK2 INHIBITORS AND USES THEREOF” (Cygnal Therapeutics, Inc., priority 2020, published 2023)

Columns and labels:
GRK2 = target: T1, GRK2 (Homo sapiens, UniProt P25098); assay: GRK2 Inhibition Assay (TR-FRET, Example 7); assay type: biochemical; details: Enzyme Assay B, TR-FRET (Example 7); read-out: B: Enzymatic GRK2: IC50 (nM) (Example 7)
T1 construct: purchased SignalChem A14-10G
T1 sequence (P25098 1-689): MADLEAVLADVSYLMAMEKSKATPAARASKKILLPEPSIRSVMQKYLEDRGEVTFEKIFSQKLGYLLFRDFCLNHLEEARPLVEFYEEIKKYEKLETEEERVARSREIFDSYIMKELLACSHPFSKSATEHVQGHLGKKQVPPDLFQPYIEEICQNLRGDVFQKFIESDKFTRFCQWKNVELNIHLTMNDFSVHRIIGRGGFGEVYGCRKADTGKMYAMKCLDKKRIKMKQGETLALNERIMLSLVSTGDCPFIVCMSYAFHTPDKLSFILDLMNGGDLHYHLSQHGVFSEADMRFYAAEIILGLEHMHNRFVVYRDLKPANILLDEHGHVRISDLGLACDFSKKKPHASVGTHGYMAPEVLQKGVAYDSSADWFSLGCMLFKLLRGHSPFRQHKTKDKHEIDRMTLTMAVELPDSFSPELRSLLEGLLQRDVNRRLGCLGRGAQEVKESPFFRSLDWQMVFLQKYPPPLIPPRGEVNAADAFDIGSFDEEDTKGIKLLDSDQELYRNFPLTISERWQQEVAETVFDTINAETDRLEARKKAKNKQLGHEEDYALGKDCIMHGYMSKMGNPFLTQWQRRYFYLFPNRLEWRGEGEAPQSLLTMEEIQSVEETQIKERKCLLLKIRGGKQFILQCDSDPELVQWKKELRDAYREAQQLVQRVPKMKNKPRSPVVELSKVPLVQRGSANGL
Method: Enzyme GRK2 (1 nM final concentration) was diluted in 25 mMv HEPES, 10 mM MgCl2, 2 mM DTT, 0.01% Tween-20, and 1 mM EGTA. Then the GRK2 mixture was added into ProxiPlate-384 white plate and pre-incubated for 30 min with test compounds at room temperature. ATP (7 μM final concentration) and Ulight TopoIIα (50 nM final concentration) were added into the assay plate to initiate the reaction and the mixture was incubated at room temperature for 90 min. Then, Eu anti-TopoIIα (0.12 nM final concentration), BSA (0.01% final concentration), and EDTA (11 mMv final concentration) in LANCE assay buffer were added into each well. After 60 min incubation time at room temperature, TR-FRET signal was measured by EnVision plate reader.

[1] = tested on: PAXF1657 control empty vector cell line; assay: 7-day proliferation assay, PAXF1657 control empty vector cell line (Example 9); assay type: cell-based; details: 168 h; Cell Line: PAXF1657 empty vector (EV) cell line; 7-day; read-out: C: 7-day proliferation assay: IC50 GeoMean
How it was run: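 Seven-day growth in PAXF1657 lines engineered for GRK2 overexpression or knockout, measured by CellTiter-Glo; compounds tested at 30 μM-0.0002 μM final and replenished once at day 3.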

Row | IC50 (GRK2) | SMILES | IC50 [1]
1 | 39 nM | Cn1c(CNc2cccc(C(=O)NCc3cc[nH]n3)c2)nnc1-c1ccncn1 | > 10000 nM
2 | 200 nM | CCCn1c(CNc2cccc(C(=O)NCc3ccccc3C(F)(F)F)n2)nnc1-c1ccncn1 | > 10000 nM
3 | 22 nM | CCCn1c(CNc2cccc(C(=O)NC3(c4ccccc4)CCOCC3)c2)nnc1-c1ccncn1 | 9260 nM
4 | 3.8 nM | CCCn1c(CNc2cccc(C(=O)NCc3cccnc3OC)c2)nnc1-c1ccncn1 | > 30000 nM
5 | 2.4 nM | O=C(NCc1cccc2c1OCC2)c1cccc(NCc2nnc3n2CCOc2cnccc2-3)c1 | 3010 nM
6 | 3.7 nM | O=C(NCc1cccc(F)c1)c1cccc(NCc2nnc3n2CCOc2cnccc2-3)c1 | 7020 nM
7 | 2.6 nM | O=C(N[C@H]1CCOc2ccccc21)c1cccc(NCc2nnc3n2CCOc2cnccc2-3)c1 | > 30000 nM
8 | 3.5 nM | O=C(NCc1cccnc1C(F)(F)F)c1cccc(NCc2nnc3n2CCOc2cnccc2-3)c1 | 6570 nM
9 | 1.6 nM | COc1ccc(CNC(=O)c2cccc(NCc3nnc4n3CCOc3cnccc3-4)c2)c(F)c1 | > 30000 nM
10 | 6.7 nM | COc1cccc(OC)c1CNC(=O)c1cccc(NCc2nnc3n2CCOc2cnccc2-3)c1 | > 30000 nM
11 | 9.1 nM | CCOc1ccccc1CNC(=O)c1cccc(NCc2nnc3n2CCOc2cnccc2-3)c1 | 2320 nM
12 | 39 nM | O=C(NC1(c2ccccc2)CCOCC1)c1cccc(NCc2nnc3n2CCOc2cnccc2-3)c1 | 20300 nM
13 | 7.5 nM | COc1ncccc1CNC(=O)c1cccc(NCc2nnc3n2CCOc2cnccc2-3)c1 | > 30000 nM
14 | 6.3 nM | O=C(NCc1cccc2c1OCC2)c1cccc(NCc2nnc(-c3ccncc3)n2CCO)c1 | 6080 nM
15 | 9.2 nM | O=C(NCc1cccc(F)c1)c1cccc(NCc2nnc(-c3ccncc3)n2CCO)c1 | > 30000 nM
16 | 8.2 nM | O=C(N[C@H]1CCOc2ccccc21)c1cccc(NCc2nnc(-c3ccncc3)n2CCO)c1 | 4580 nM
17 | 5.2 nM | O=C(NCc1cccnc1C(F)(F)F)c1cccc(NCc2nnc(-c3ccncc3)n2CCO)c1 | > 30000 nM
18 | 4.9 nM | COc1ccc(CNC(=O)c2cccc(NCc3nnc(-c4ccncc4)n3CCO)c2)c(F)c1 | > 30000 nM
19 | 23 nM | COc1cccc(OC)c1CNC(=O)c1cccc(NCc2nnc(-c3ccncc3)n2CCO)c1 | > 30000 nM
20 | 19 nM | CCOc1ccccc1CNC(=O)c1cccc(NCc2nnc(-c3ccncc3)n2CCO)c1 | 6310 nM
21 | 20 nM | COc1ncccc1CNC(=O)c1cccc(NCc2nnc(-c3ccncc3)n2CCO)c1 | 256 nM
22 | 34 nM | O=C(NCc1c(F)cccc1F)c1ccnc(NCc2nnc(-c3ccncc3)[nH]2)c1 | > 30000 nM
23 | 79 nM | CCc1cnccc1CNC(=O)c1cccc(NCc2nnc(-c3ccncc3Cl)n2C)c1 | > 30000 nM
24 | 41 nM | CCc1cnccc1CNC(=O)c1cccc(NCc2nnc(-c3ccncc3F)n2C)c1 | 1480 nM
25 | 4.2 nM | O=C(NCc1cccc2c1OCC2)c1cccc(NCc2nnc(-c3ccncn3)n2CCCO)c1 | 14500 nM
26 | 5.8 nM | O=C(NCc1cccnc1C(F)(F)F)c1cccc(NCc2nnc(-c3ccncn3)n2CCCO)c1 | > 30000 nM
27 | 94 nM | CCc1cnccc1CNC(=O)c1cccc(NCc2nnc(-c3ccncn3)n2CCCNC)c1 | > 30000 nM
28 | 7.9 nM | Cn1c(CNc2cc(C(=O)NCc3cnc4ccccn34)ccn2)nnc1-c1ccncn1 | 2750 nM

Row | IC50 (GRK2) | SMILES | IC50 [1]
29 | 24 nM | Cc1cccc2ncc(CNC(=O)c3ccnc(NCc4nnc(-c5ccncn5)n4C)c3)n12 | > 30000 nM
30 | 11 nM | Cn1c(CNc2cc(C(=O)NCc3cccnc3C(F)(F)F)ccn2)nnc1-c1ccncn1 | > 30000 nM
31 | 16 nM | Cc1cccc([C@H](CO)NC(=O)c2ccnc(NCc3nnc(-c4ccncn4)n3C)c2)c1 | > 30000 nM
32 | 96 nM | Cc1cccc([C@@H](CO)NC(=O)c2ccnc(NCc3nnc(-c4ccncn4)n3C)c2)c1 | > 30000 nM
33 | 26 nM | Cn1c(CNc2cc(C(=O)N[C@@H]3COc4ccccc43)ccn2)nnc1-c1ccncn1 | 1800 nM
34 | 63 nM | Cn1c(CNc2cc(C(=O)N[C@H]3CCOc4c(Cl)cccc43)ccn2)nnc1-c1ccncn1 | > 30000 nM
35 | 20 nM | Cn1c(CNc2cc(C(=O)N[C@@H]3CCOc4c(Cl)cccc43)ccn2)nnc1-c1ccncn1 | 2070 nM
36 | 55 nM | C[C@@H](NC(=O)c1ccnc(NCc2nnc(-c3ccncn3)n2C)c1)c1ncccc1Cl | > 30000 nM
37 | 65 nM | C[C@H](NC(=O)c1ccnc(NCc2nnc(-c3ccncn3)n2C)c1)c1ncccc1Cl | > 30000 nM
38 | 23 nM | CCc1cnccc1CNC(=O)c1cccc(NCc2nnc(-c3ccncn3)n2CCCOC)c1 | > 30000 nM
39 | 1.7 nM | O=C(NCc1cccc2c1OCC2)c1cccc(NCc2nnc(-c3ccncn3)n2CCO)c1 | > 30000 nM
40 | 2.5 nM | Cc1cccnc1CNC(=O)c1cccc(NCc2nnc(-c3ccncn3)n2CCO)c1 | 1160 nM
41 | < 2.9 nM | O=C(NCc1ccncc1Cl)c1cccc(NCc2nnc(-c3ccncn3)n2CCO)c1 | > 2970 nM
42 | < 0.51 nM | O=C(NCc1cnc2ccccn12)c1cccc(NCc2nnc(-c3ccncn3)n2CCO)c1 | 580 nM
43 | 1 nM | Cc1cccc2ncc(CNC(=O)c3cccc(NCc4nnc(-c5ccncn5)n4CCO)c3)n12 | 3080 nM
44 | 0.98 nM | O=C(NCc1cccnc1C(F)(F)F)c1cccc(NCc2nnc(-c3ccncn3)n2CCO)c1 | > 30000 nM
45 | 1.4 nM | Cc1cc2c(cc1CNC(=O)c1cccc(NCc3nnc(-c4ccncn4)n3CCO)c1)OCCO2 | > 30000 nM
46 | 4.6 nM | O=C(N[C@@H]1CCOc2c(Cl)cccc21)c1cccc(NCc2nnc(-c3ccncn3)n2CCO)c1 | 123 nM
47 | 1.5 nM | O=C(N[C@H]1CCOc2c(Cl)cccc21)c1cccc(NCc2nnc(-c3ccncn3)n2CCO)c1 | 163 nM
48 | 1.1 nM | Cc1cccc([C@@H](CO)NC(=O)c2cccc(NCc3nnc(-c4ccncn4)n3CCO)c2)c1 | 1510 nM
49 | < 0.51 nM | O=C(N[C@H]1COc2ccccc21)c1cccc(NCc2nnc(-c3ccncn3)n2CCO)c1 | 107 nM
50 | < 0.51 nM | C[C@@H](NC(=O)c1cccc(NCc2nnc(-c3ccncn3)n2CCO)c1)c1ncccc1Cl | 803 nM
51 | 15 nM | COCCCn1c(CNc2cccc(C(=O)NCc3cccnc3C(F)(F)F)c2)nnc1-c1ccncn1 | 1200 nM
52 | 39 nM | COCCOc1cccc(CNC(=O)c2cccc(NCc3nnc(-c4ccncn4)n3C)c2)c1 | 779 nM
53 | 1000 nM | O=C(NCc1cccnc1C(F)(F)F)c1cccc(NCc2nnc(-c3ccncn3)n2CCCN2CCC[C@H]2CO)c1 | > 30000 nM
54 | 13 nM | Cn1c(CNc2cccc(C(=O)N[C@@H]3CCOc4c(Br)cccc43)c2)nnc1-c1ccncn1 | 1630 nM
55 | 3.6 nM | Cn1c(CNc2cccc(C(=O)N[C@H]3CCOc4c(Br)cccc43)c2)nnc1-c1ccncn1 | > 30000 nM

Row | SMILES | IC50 (GRK2) | IC50 [1]
56 | C#Cc1ccc(OS(=O)(=O)F)c(CNC(=O)c2cccc(NCc3nnc(-c4ccncc4)[nH]3)c2)c1 | 13 nM | > 7500 nM
